Test results: patent publication US5017584A, “Antidepressant 2-(4,5-dihydro-1H-imidazolyl)-dihydro-1H-indoles, -1,2,3,4-tetrahydroquinolines and -1H-indoles, and methods of use thereas” (Sterling Drug Inc., priority 1985, dated 1991)
“And” between values parts separate entries of the source, which are not always exact repeats. Identical values can stand only once. Like-named read-outs stand apart in the source and are kept apart here.

Assays:
[1] = biological target: T1, isolated, electrically stimulated rat vas deferens (Rattus norvegicus, UniProt P22909); assay: Vas Deferens Assay: antagonism of clonidine-induced inhibition of twitch height in isolated, electrically stimulated rat vas deferens; details: for inhibition at 0.5 µM: 500 nM; for Twitch height: reversal by yohimbine
T1 construct: isolated, electrically stimulated rat vas deferens; from tissue; host or cells: isolated rat vas deferens
T1 sequence (P22909 1-465): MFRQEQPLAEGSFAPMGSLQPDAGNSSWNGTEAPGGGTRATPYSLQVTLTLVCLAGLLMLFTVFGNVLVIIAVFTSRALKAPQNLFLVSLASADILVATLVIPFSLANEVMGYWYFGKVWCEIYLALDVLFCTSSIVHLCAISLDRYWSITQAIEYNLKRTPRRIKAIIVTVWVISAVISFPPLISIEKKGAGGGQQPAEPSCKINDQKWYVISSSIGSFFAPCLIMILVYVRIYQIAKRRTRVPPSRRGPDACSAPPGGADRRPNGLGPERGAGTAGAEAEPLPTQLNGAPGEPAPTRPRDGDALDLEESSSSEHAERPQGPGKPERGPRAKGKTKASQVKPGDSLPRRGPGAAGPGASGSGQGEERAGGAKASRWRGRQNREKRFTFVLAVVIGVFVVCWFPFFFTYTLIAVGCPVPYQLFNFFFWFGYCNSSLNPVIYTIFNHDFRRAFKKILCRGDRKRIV
Protocol: (§1) The α2 -adrenergic antagonist activity of the compounds of the invention was determined by three screening methods, described as follows:
Results are expressed either in terms of percent inhibition at the concentration of antagonist used or as pA2 values, determined by the Schild method; cf. Tallarida and Murray, Manual of Pharmacologic Calculations, pp. 29-32 (Springer-Verlag, 1981). The pA2 value is the negative logarithms of the concentration of antagonist required to cause a two-fold shift in the dose response curve to clonidine-induced inhibition of twitch height.

[2] = system: mice; assay: In Vivo Antagonism of Clonidine-Induced Anti-Nociception (phenyl-p-quinone writhing); details: Mus musculus; for ED50: read-out: ED50, Antagonism of Clonidine Analgesia; for responders at 3 mg/kg: 3 mg/kg s.c.
Protocol: as §1
In Vivo Antagonism of Clonidine-Induced Anti-Nociception
The intraperitoneal administration of phenyl-p-quinone (PPQ) to mice elicits a nociceptive response which consists of abdominal writhing and extension of the hind limbs. This writhing response is prevented in mice pretreated with clonidine. […] To groups of thirty male mice for each experiment, the test compound dissolved in 0.9% sodium chloride was administered either subcutaneously or orally. […] The number of mice that writhed at least three times during the five minute observation period was counted. The number of mice that writhed was scored for each dose of antagonist, and the percentage reversal of clonidine-induced anti-nociception (analgesia) was calculated by dividing the number of animals writhing by the total number of test animals and multiplying the quotient by 100. The results are also expressed as an ED50, the effective dose (in mg./kg.) in 50% of the animals to effect antagonism of clonidine-induced analgesia.

[3] = cited from earlier work
[4] = phenylquinone writing test; cited from earlier work
[5] = biological target: T2, α2-adrenergic receptor (Rattus norvegicus, UniProt P22909); assay: Tritiated Clonidine Receptor Binding Assay (inhibition of 3H-clonidine binding to rat cerebral cortex membranes); details: for Ki: 0.4 nM 3H-clonidine, rat cerebral cortex membranes; for inhibition at 1 µM: read-out: % I, Clonidine [3H] Binding, 1000 nM
T2 construct: Homogenates of rat cerebral cortex; from tissue; host or cells: rat cerebral cortex homogenate (membranes)
T2 sequence (P22909 1-465): T1 sequence (P22909 1-465)
Protocol: as §1
The results are expressed either in terms of percent inhibition at the concentration of antagonist used or as Ki values.

[6] = sc, read-out: % A, Antagonism of Clonidine Analgesia, 1 mg/kg s.c.
[7] = sc, read-out: % A, Antagonism of Clonidine Analgesia
[8] = sc, read-out: % A, Antagonism of Clonidine Analgesia, 10 mg/kg s.c.
[9] = rat, 100 nM, read-out: % A, rat vas deferens
[10] = rat, read-out: % A, rat vas deferens
[11] = po, read-out: % A, Antagonism of Clonidine Analgesia, 10 mg/kg p.o.
[12] = po, read-out: % A, Antagonism of Clonidine Analgesia, 30 mg/kg p.o.
[13] = read-out: pA2, rat vas deferens (converted)
[14] = sc, read-out: % A, Antagonism of Clonidine Analgesia, 30 mg/kg s.c.
[15] = rat, read-out: % A, rat vas deferens, 100 nM

Structure (SMILES): C[C@H]1c2ccccc2N(C)[C@@H]1C1=NCCN1 (relative stereo) [Example 1T]
- Kb [1]: 110 nM
- ED50 ([2]; po, p.o.): 41 mg/kg

Structure (SMILES): C[C@@H]1c2ccccc2N(C)[C@@H]1C1=NCCN1 (relative stereo) [Example 1Z]
- agonist activity, rat vas deferens ([1]; as agonist): active
- antagonist activity, rat vas deferens ([1]; as antagonist): Inac.
- responders at 0.1 mg/kg ([2]; sc, read-out: % A, Antagonism of Clonidine Analgesia, 0.1 mg/kg s.c.): 80%
- responders at 0.3 mg/kg ([2]; sc, read-out: % A, Antagonism of Clonidine Analgesia, 0.3 mg/kg s.c.): 70%
- responders at 1 mg/kg [2, 6]: 30%
- responders at 3 mg/kg [2, 7]: 0%
- responders at 10 mg/kg [2, 8]: 0%

Structure (SMILES): c1ccc2c(c1)CCN2C1=NCCN1 [1-(4,5-dihydro-1H-imidazol-2-yl)-2,3-dihydro-1H-indole]
- analeptic activity, antagonism of chloral hydrate ([3]; chloral hydrate): inactive
- analeptic activity, antagonism of pentobarbital ([3]; pentobarbital): active
- analgesic activity [4]: active

Structure (SMILES): CN1c2ccc(F)cc2CC1C1=NCCN1 (centres unmarked) [Example 1A, 2-(4,5-dihydro-1H-imidazol-2-yl)-5-fluoro-2,3-dihydro-1-methyl-1H-indole]
- Ki [5]: 0.92 nM
- Kb [1]: 3.55 nM
- ED50 ([2]; po, p.o.): 0.75 mg/kg
- ED50 ([2]; sc, s.c.): 0.0071 mg/kg

Structure (SMILES): COCC1(C2=NCCN2)Cc2ccccc2N1C (centres unmarked) [Example 1AA]
- % I, Clonidine [3H] Binding ([5]; concentration not given): 43.5%
- % A, rat vas deferens ([1]; 100 nM, 0.1 µM): 7%
- inhibition at 0.1 µM [1, 9]: 6%
- inhibition at 0.5 µM [1, 10]: 52%
- inhibition at 0.5 µM ([1]; rat, read-out: reduced twitch height): 67%
- responders at 1 mg/kg ([2]; po, read-out: % A, Antagonism of Clonidine Analgesia, 1 mg/kg p.o.): 0%
- responders at 10 mg/kg [2, 11]: 10%
- responders at 30 mg/kg [2, 12]: 70%
- ED50 ([2]; po, p.o.): 21.8 mg/kg
- ED50 ([2]; sc, s.c.): 2.6 mg/kg

Structure (SMILES): CSCC1(C2=NCCN2)Cc2ccccc2N1C (centres unmarked) [Example 1AB]
- Twitch height [1]: reversed by yohimbine
- responders at 10 mg/kg [2, 11]: 0%
- responders at 30 mg/kg [2, 12]: 90%

Structure (SMILES): CC(C)N(CC1(C2=NCCN2)Cc2ccccc2N1C)C(C)C (centres unmarked) [Example 1AC]
- Twitch height [1]: reversed by yohimbine
- responders at 10 mg/kg [2, 11]: 50%
- responders at 30 mg/kg [2, 12]: 50%

Structure (SMILES): CCN1CCN=C1C1C(C)c2ccccc2N1C (centres unmarked) [Example 1AD]
- fold shift of clonidine ([1]; 20 μm): 3.5 fold

Structure (SMILES): CC1c2ccccc2N(C)C1CC1=NCCN1 (centres unmarked) [Example 1AE]
- fold shift of clonidine ([1]; 20 μm): 15 fold

Structure (SMILES): C=C1c2ccccc2N(C)C1(C)C1=NCCN1 (centres unmarked) [Example 1AF]
- fold shift of clonidine ([1]; 10 μm): 23.9 fold

Structure (SMILES): COc1c(C2=NCCN2)n(C)c2ccccc12 [Example 1AG]
- fold shift of clonidine ([1]; 10 μm): 3.9 fold

Structure (SMILES): CN1c2ccccc2CC1C1=NCCN1 (centres unmarked) [Example 1B]
- Ki [5]: 0.46 nM
- Kb [1]: 3.31 nM
- ED50 ([2]; sc, s.c.): 12 mg/kg

Structure (SMILES): CCN1c2ccccc2CC1C1=NCCN1 (centres unmarked) [Example 1C]
- Ki [5]: 0.91 nM
- Kb [1]: 1.23 nM
- ED50 ([2]; po, p.o.): 0.098 mg/kg
- ED50 ([2]; sc, s.c.): 0.034 mg/kg

Structure (SMILES): C=CCC1(C2=NCCN2)Cc2ccccc2N1C (centres unmarked) [Example 1D]
- inhibition at 1 µM [5]: 85%
- Kb [1, 13]: 110 nM
- ED50 ([2]; po, p.o.): 11.1 mg/kg

Structure (SMILES): c1ccc(CN2c3ccccc3CC2C2=NCCN2)cc1 (centres unmarked) [Example 1E]
- Ki [5]: 2.3 nM
- Kb [1, 13]: 11.7 nM
- ED50 ([2]; po, p.o.): 0.051 mg/kg
- ED50 ([2]; sc, s.c.): 0.18 mg/kg

Structure (SMILES): CN1c2ccccc2CC1(C)C1=NCCN1 (centres unmarked) [Example 1F]
- Ki [5]: 3.39 nM
- Kb [1]: 28.2 nM
- ED50 ([2]; po, p.o.): 8.8 mg/kg

Structure (SMILES): CN1c2ccccc2CC1CC1=NCCN1 (centres unmarked) [Example 1G]
- Ki [5]: 355 nM
- responders at 30 mg/kg [2, 14]: 0%

Structure (SMILES): CN1c2ccc(Cl)cc2CC1C1=NCCN1 (centres unmarked) [Example 1H]
- Kb [1]: 2.75 nM
- ED50 ([2]; po, p.o.): 1.5 mg/kg

Structure (SMILES): CCCN1c2ccccc2CC1C1=NCCN1 (centres unmarked) [Example 1J]
- Kb [1]: 1.74 nM

Structure (SMILES): CN1c2c(Cl)cccc2CC1C1=NCCN1 (centres unmarked) [Example 1K]
- Kb [1]: 1.58 nM
- responders at 0.03 mg/kg ([2]; sc, read-out: % A, Antagonism of Clonidine Analgesia, 0.03 mg/kg s.c.): 70%
- responders at 1 mg/kg [2, 6]: 100%
- responders at 3 mg/kg [2, 7]: 100%
- responders at 10 mg/kg [2, 8]: 100%

Structure (SMILES): CCCCN1c2ccccc2CC1C1=NCCN1 (centres unmarked) [Example 1L]
- Kb [1]: 1.58 nM
- responders at 3 mg/kg [2, 7]: 20%
- responders at 5.5 mg/kg ([2]; sc, read-out: % A, Antagonism of Clonidine Analgesia, 5.5 mg/kg s.c.): 100%
- responders at 10 mg/kg [2, 8]: 100%

Structure (SMILES): C=CCN1c2ccccc2CC1C1=NCCN1 (centres unmarked) [Example 1M]
- Kb [1]: 0.851 nM
- ED50 ([2]; po, p.o.): 2.6 mg/kg

Structure (SMILES): CCOCCN1c2ccccc2CC1C1=NCCN1 (centres unmarked) [Example 1N]
- Kb [1]: 15.5 nM
- ED50 ([2]; po, p.o.): 26.5 mg/kg

Structure (SMILES): c1ccc2c(c1)CC(C1=NCCN1)N2 (centres unmarked) [Example 1O]
- Kb [1]: 6.92 nM
- ED50 ([2]; po, p.o.): 1.8 mg/kg

Structure (SMILES): CN1c2ccc(Cc3ccccc3)cc2CC1C1=NCCN1 (centres unmarked) [Example 1P]
- Kb [1, 13]: 25.7 nM
- ED50 ([2]; sc, s.c.): 11.3 mg/kg

Structure (SMILES): c1ccc(CCN2c3ccccc3CC2C2=NCCN2)cc1 (centres unmarked) [Example 1Q]
- inhibition at 0.1 µM [1, 9]: 81%
- inhibition at 0.5 µM [1, 10]: 94%

Structure (SMILES): c1ccc(N2c3ccccc3CC2C2=NCCN2)cc1 (centres unmarked) [Example 1R]
- inhibition at 0.1 µM [1, 15]: 100%
- ED50 ([2]; po, p.o.): 19.8 mg/kg

Structure (SMILES): CN1c2c(Cl)cc(Cl)cc2CC1C1=NCCN1 (centres unmarked) [Example 1S]
- Kb [1]: 10 nM
- ED50 ([2]; po, p.o.): 60.1 mg/kg

Structure (SMILES): c1ccc2c(c1)CCC(C1=NCCN1)N2 (centres unmarked) [Example 1U]
- Kb [1]: 9.33 nM
- ED50 ([2]; po, p.o.): 3.8 mg/kg

Structure (SMILES): CN1c2ccccc2CCC1C1=NCCN1 (centres unmarked) [Example 1V]
- Kb [1]: 7.41 nM
- ED50 ([2]; po, p.o.): 2.6 mg/kg

Structure (SMILES): c1ccc(C2CC(C3=NCCN3)Nc3ccccc32)cc1 (centres unmarked) [Example 1W]
- inhibition at 1 µM [5]: 44.6%
- % A, rat vas deferens ([1]; 0.1 nM, 0.0001 µM): 3%
- % A, rat vas deferens ([1]; 1 nM, 0.001 µM): 0% and 1%
- inhibition at 0.0001 µM ([1]; rat, 0.1 nM): 2%

Structure (SMILES): Cn1c(CC2=NCCN2)cc2ccccc21 [Example 1X]
- Kb [1]: 33.1 nM
- responders at 10 mg/kg [2, 11]: 0%
- responders at 30 mg/kg [2, 12]: 10%
- responders at 100 mg/kg ([2]; po, read-out: % A, Antagonism of Clonidine Analgesia, 100 mg/kg p.o.): 50%
- responders at 10 mg/kg [2, 8]: 50%
- responders at 30 mg/kg [2, 14]: 60%
- responders at 100 mg/kg ([2]; sc, read-out: % A, Antagonism of Clonidine Analgesia, 100 mg/kg s.c.): 50%

Structure (SMILES): Cn1c(C2=NCCN2)cc2ccccc21 [Example 1Y]
- inhibition at 1 µM [5]: 32.5%
- inhibition at 0.1 µM [1, 15]: 3%
